Experimental data reported in patent US8168193B2, “Molecules, compositions, methods and kits for applications associated with flaviviruses” (National University of Singapore, priority 2003, dated 2012).
No end group written: not given here.

Key:
WNV [1] = conditions: Vero cells, EDTA 3-12 mM, 2 hrs at 37° C.
[2] = test system: 105-kDa cell receptor protein; experiment: Virus Overlay Protein Binding Assay (VOPBA) on Vero plasma membrane proteins; conditions: for West Nile virus binding after removal of papain (VOPBA): Vero cells, papain 50 mU/ml 45 minutes, 0, 2 and 4 hours after removal, with or without cycloheximide 100 μg/ml; for West Nile virus binding to treated membrane proteins of Vero cells (VOPBA): Vero plasma membrane proteins
West Nile virus [3] = experiment: Protease, phospholipase, glycosidase, periodate and lectin pretreatment of Vero cells, then West Nile virus infection, plaque assay; type: cell-based; conditions: Vero cells pretreated 45 min at 25° C.; for effect of pretreatment of Vero cells on West Nile virus entry/infection: plaque assay at 12 hours p.i.
Experimental: Cell monolayers (Vero cells or N2A) of approximately 5×10^6 cells were washed twice with phosphate buffer saline (PBS) before enzyme treatment. Cell monolayers were incubated with the proteases and phospholipases, glycosidases and lectins (as listed below) in PBS at a pH of 7.0 for 45 min at 25° C. […] Cell monolayers were then incubated with West Nile virus (MOI=10) at 37° C. for 1 hour. Excess virus particles were inactivated with sodium citrate buffer (pH 2.8) for 10 minutes and the cell monolayer washed twice with PBS. Vero cells were then incubated at 37° C. for 12 hours. At 12 hours p.i., virus titers from the treated samples were determined by plaque assays. Three independent experiments were conducted for each set of enzymes used.
The enzymes used were; Proteases: Proteinase K (EC 3.4.21.64) from Tritirachium album, concentration of 10 μg/ml, 1 μg/ml & 0.1 μg/ml; α-chymotrypsin (EC 3.4.21.1) from bovine pancreas, concentration of 10 μg/ml & 1 μg/ml; trypsin (EC 3.4.21.4) from bovine pancreas, concentration of 10 μg/ml, 1 μg/ml & 0.1 μg/ml; Bromelain (EC 3.4.22.32) from pineapple stem, concentration of 20 mUnit/ml, 2 mUnit/ml & 0.2 mUnit/ml; Papain (EC 3.4.22.2) from Carica papaya, concentration of 50 mUnit/ml & 10 mUnit/ml. Phospholipases: Phospholipase A2 (EC 3.1.1.4) from bovine pancreas, concentration of 1 UNIT/ml & 0.1 UNIT/ml; Phospholipase C (EC 3.1.1.4.3) from Clostridium perfringes, concentration of 10 UNIT/ml & 1 UNIT/ml; Phospholipase D (EC 3.1.4.4) from peanut, concentration of 100 UNIT/ml & 10 UNIT/ml; Glycosidases: Endoglycosidase H (EC 3.2.1.96) from Streptomyces plicatus, concentration of 100 mUNIT/ml & 10 mUNIT/ml; O-glycosidase (EC3.2.1.97) from Diploccus pneumoniae, concentration of 1 mUNIT/ml & 0.1 mUNIT/ml; α-mannosidase (EC 3.2.1.24) from almonds, concentration of 1000 μ/ml, 100 μg/ml & 10 μg/ml; α-Fucosidase (EC 3.2.1.11) from almond meal, concentration of 100 mUNIT/ml & 10 mUNIT/ml; Heparinase I (EC 4.2.2.7) and Heparinase III (EC 4.2.2.2.8) from Flavobacterium heparinum, concentration of 1 UNIT/ml & 0.1 UNIT/ml. Lectins: Concanavalin-A from Jack bean, wheat germ agglutinin from Triticum vulgaris, phytohemagglutinin from Phaseolus spp., concentration of 1000 μg/ml & 100 μg/ml; Sodium periodate concentration of 1 mM & 0.1 mM. Cell viability after enzyme treatment was assessed by Trypan blue staining and observation under phase contrast microscope BX 60.
The enzymes or chemicals were used at concentrations known to be effective in reducing the entry of other known viruses (Borrow and Oldstone, 1992; Ramos-Castaneda et al., 1997; Salas-Benito and del Angel, 1997; Martinez-Barragan and del Angel, 2001). Results are expressed as the number of log unit inhibition with respect to untreated samples. At the same time, cell viability after treatments was also assessed by Trypan blue exclusion method.

[4] = test system: 105-kDa cell receptor protein; experiment: Virus Overlay Protein Binding Assay (VOPBA) on N2A plasma membrane proteins
WNV [5] = experiment: Competitive inhibition of WNV entry into Vero cells with soluble recombinant WNV envelope DIII; type: cell-based, West Nile virus; conditions: 5 to 100 μg/ml, 30 min at 37° C.
Experimental: (§1) Vero cells were first incubated with different concentration (5 to 100 μg/ml) of DIII protein or BSA for 30 min at 37° C. Excess or unbound protein is removed by washing thrice with PBS. Radiolabeled WNV or Dengue virus (250 plaque forming unit, PFU) is added and incubated for 1 h at 37° C. Virus entry into Vero cells was determined by radioactive counts from a scintillation counter.

Dengue virus = experiment: Competitive inhibition of Dengue virus entry into Vero cells with soluble recombinant WNV envelope DIII; type: cell-based; conditions: at high concentration used
Experimental: as §1

West Nile virus [6] = experiment: Competitive physiological ligand binding assay, virus entry into Vero cells; type: cell-based; conditions: Vero cells incubated with ligand 1 hr, then radiolabeled virus 1 hr at 37° C.
Experimental: Competitive physiological ligand binding assay with fibronectin, vitronectin, heparin, chrondriotin sulphate, laminin and the peptides RGD1 and RGE1 reported in the sequence listing as SEQ ID NO: 6 and SEQ ID NO:7 was carried out. In particular Vero cells were incubated with different concentrations of ECM proteins, RGD peptides, or anti-integrin antibodies at 4° C. or 37° C. for 1 hr, washed, incubated with 50 μl of radiolabeled WNV, JEV at 37° C. for 1 hr and assessed for virus entry.

Molecule | effect of pretreatment of Vero cells on West Nile virus entry/infection (West Nile virus [3]) | West Nile virus binding to treated membrane proteins of Vero cells (VOPBA) [2] | other results
O=C(O)CN(CCN(CC(=O)O)CC(=O)O)CC(=O)O [EDTA] | – | – | binding and subsequent entry of West Nile virus (WNV [1]): did not block
C[C@@H]1C[C@@H]([C@H](O)CC2CC(=O)NC(=O)C2)C(=O)[C@@H](C)C1 [cycloheximide] | – | – | West Nile virus binding after removal of papain (VOPBA) [2]: virus binding was also observed
[Na+].[O-][I+3]([O-])([O-])[O-] [sodium periodate] | substantially reduced | reduced in a dosage-dependent manner | –
OCCS [β-mercaptoethanol] | – | did not disrupt virus binding | West Nile virus binding to treated membrane proteins of N2A cells (VOPBA) [4]: did not disrupt virus binding
Concanavalin-A | prevented the entry | block the binding | –
DIII protein: soluble His-tagged recombinant West Nile virus envelope domain III (350-390), comprising SEQ ID NO: 19 (SIPKLEIAGXFKDL; X: residue not identified in the source) | – | – | inhibition of entry of WNV into Vero cells (WNV [5]): significantly blocked; inhibition of entry of Dengue virus into Vero cells (Dengue virus): slightly block
Heparinase I | minimal effect | – | –
Heparinase III | minimal effect | – | –
O-glycosidase | minimal effect | did not affect | West Nile virus binding to treated membrane proteins of N2A cells (VOPBA) [4]: did not affect
RGD peptide: peptide RGD1 reported in the sequence listing as SEQ ID NO: 6 (RFDS; RGD1 amino acid sequence) | – | – | inhibition of West Nile virus infection by competitive ligands (West Nile virus [6]): partial inhibition
fibronectin | – | – | inhibition of West Nile virus infection by competitive ligands (West Nile virus [6]): partial inhibition
laminin | – | – | inhibition of West Nile virus infection by competitive ligands (West Nile virus [6]): partial inhibition
phytohemagglutinin | – | no effect | –
α-Fucosidase | minimal effect | – | –
α-mannosidase | significant inhibition | No binding | West Nile virus binding to treated membrane proteins of N2A cells (VOPBA) [4]: No binding
vitronectin (protein, UniProt P04004 20-478, looked up, ECM protein, physiological ligand for integrin αVβ3) Vitronectin: DQESCKGRCTEGFNVDKKCQCDELCSYYQSCCTDYTAECKPQVTRGDVFTMPEDEYTVYDDGEEKNNATVHEQVGGPSLTSDLQAQSKGNPEQTPVLKPEEEAPAPEVGASKPEGIDSRPETLHPGRPQPPAEEELCSGKPFDAFTDLKNGSLFAFRGQYCYELDEKAVRPGYPKLIRDVWGIEGPIDAAFTRINCQGKTYLFKGSQYWRFEDGVLDPDYPRNISDGFDGIPDNVDAALALPAHSYSGRERVYFFKGKQYWEYQFQHQPSQEECEGSSLSAVFEHFAMMQRDSWEDIFELLFWGRTSAGTRQPQFISRDWHGVPGQVDAAMAGRIYISGMAPRPSLAKKQRFRHRNRKGYRSQRGHSRGRNQNSRRPSRATWLSLFSSEESNLGANNYDDYRMDWLVPATCEPIQSVFFFSGDKYYRVNLRTRRVDTVDPPYPRSIAQYWLGCPAPGHL | – | – | inhibition of West Nile virus infection by competitive ligands (West Nile virus [6]): partial inhibition
Papain (protein, UniProt P00784 134-345, looked up, Papain (EC 3.4.22.2) from Carica papaya, a cysteine endopeptidase) Papain: IPEYVDWRQKGAVTPVKNQGSCGSCWAFSAVVTIEGIIKIRTGNLNEYSEQELLDCDRRSYGCNGGYPWSALQLVAQYGIHYRNTYPYEGVQRYCRSREKGPYAAKTDGVRQVQPYNEGALLYSIANQPVSVVLEAAGKDFQLYRGGIFVGPCGNKVDHAVAAVGYGPNYILIKNSWGTGWGENGYIRIKRGTGNSYGVCGLYTSSFYPVKN | – | abolished | log unit inhibition of West Nile virus infection (West Nile virus [3]; virus titers at 12 hours p.i., with respect to untreated samples): ~5 log unit; West Nile virus binding to treated membrane proteins of N2A cells (VOPBA) [4]: abolished; West Nile virus binding after removal of papain (VOPBA) [2]: No virus binding
Endoglycosidase H (protein, UniProt P04067 43-313, looked up, Endoglycosidase H (EC 3.2.1.96) from Streptomyces plicatus) Endo-beta-N-acetylglucosaminid …: APAPVKQGPTSVAYVEVNNNSMLNVGKYTLADGGGNAFDVAVIFAANINYDTGTKTAYLHFNENVQRVLDNAVTQIRPLQQQGIKVLLSVLGNHQGAGFANFPSQQAASAFAKQLSDAVAKYGLDGVDFDDEYAEYGNNGTAQPNDSSFVHLVTALRANMPDKIISLYNIGPAASRLSYGGVDVSDKFDYAWNPYYGTWQVPGIALPKAQLSPAAVEIGRTSRSTVADLARRTVDEGYGVYLTYNLDGGDRTADVSAFTRELYGSEAVRTP | significant inhibition | No binding | West Nile virus binding to treated membrane proteins of N2A cells (VOPBA) [4]: No binding
